This note sets out measurements from a melting point compilation (Tetko et al.; mined from patent text by program, amines drawn as free bases though some values may be those of a salt).

The molecule `Nc1cc(F)c(-c2cccnc2)c(F)c1` came in with a melting point of 141 to 142 °C.

`CC(C1CC1)N(CCCc1c[nH]c2ccc(F)cc12)C1COc2c(F)ccc(C(N)=O)c2C1` (stereo not drawn) registered a melting point of 124 °C. For `CCOC(=O)C(Sc1ccc(O)cc1)c1ccc(Cl)cc1` (stereo not drawn), the melting point worked out at 63 °C. As for `N=C(N)c1cccc(Cc2c[nH]cn2)c1O`, the figure is 249 °C; as for `COc1ccc(C(=O)Nc2ccccc2)cc1NS(=O)(=O)c1ccc(C)cc1`, 200 to 202 °C. With `CCOCc1nc2c(N)nc3c(c2n1CC1(OCCS(C)(=O)=O)CCC1)CCCC3` the figure was 186 to 188 °C; with `CCc1cccc(C)c1COc1cc(C(=O)N(C)C)cc2c1nc(C)n2C`, 161 to 162 °C; with `CCC(=O)Nc1cc(S(=O)(=O)c2ccccc2)ccc1NC(=NC(=O)OC)NC(=O)OC`, 137 °C.

In the case of `COc1ccc(S(=O)(=O)C(C=CC(C)C)(CC=C(C)C)C(=O)NO)cc1` (stereo not drawn), the melting point is 93 to 96 °C. As for `CCOC(=O)C1(C(=O)OCC)CCNC(=O)C1CCO` (stereo not drawn), the figure is 120 to 121 °C; as for `CC1=NN=C(C=Cc2ccc(C#N)cc2)c2cc3c(cc2C1)OCO3`, 198 to 202 °C. With `CCCCNc1c([N+](=O)[O-])cc(C(=O)O)cc1S(N)(=O)=O` the figure was 192 °C; with `CC(O)C1CCC2C3CC=C4CC(O)CC(O)C4(C)C3CCC12C` (stereo not drawn), 235 to 237 °C; with `COc1cc2ccc(C3CO3)cc2cc1OC` (stereo not drawn), 115 to 117 °C. The molecule `COc1cc(NS(=O)(=O)c2cccs2)c2[nH]c(C(=O)NCCSC(c3ccccc3)(c3ccccc3)c3ccccc3)cc2c1` yielded a melting point of 128 to 129 °C.

`CCCCCCCCCCCCCCCCC#CCC(CO)COCCCCCCCCCCCCCCCC` (stereo not drawn) registered a melting point of 46 to 47 °C.

In turn, `COc1ccc(-c2nc(C)cc(O)n2)cc1` gave a melting point of 198 to 199 °C. As for `CCC(=O)SCCNC(=O)CCNC(=O)OCc1ccccc1`, the figure is 77 to 104 °C; as for `COc1nc(CC(=O)O)c([N+](=O)[O-])cc1C`, 135 to 137 °C; as for `O=C(O)c1cc2c3cc(Br)c(Br)cc3n(Cc3ccccc3)c2s1`, 269 to 273 °C. The molecule `COc1ccc(NC(=O)c2ccc(C3(C#N)CCCC3)cc2)cc1` registered a melting point of 163 to 168 °C. As for `Nc1nnc(CCCCCBr)s1`, the figure is 128 to 130 °C. For `Cc1c(C(=O)N[C@@H](Cc2ccc(OCc3ccsc3)cc2)C(=O)O)oc2cc(-c3ccc(Cl)cc3)ccc12`, the melting point was in the range of 111 to 113 °C. As for `COC(=O)C1(S(C)(=O)=O)C(C)NC(C)=CC1c1ccccc1S(=O)(=O)NN(C)C` (stereo not drawn), the figure is 218 to 221 °C; as for `CCCCS(=O)(=O)N(Cc1ccc(-c2ccccc2-c2nnn[nH]2)cc1)[C@@H](C)C(=O)O`, 90 °C. As for `Cn1nc(Br)c(I)c1-c1ccc(F)cc1Cl`, the figure is 139 to 141 °C; as for `O=C(CC1CCCC(Cl)C1)Nc1ccccc1` (stereo not drawn), 110 to 112 °C. With `O=C1NC(C(=O)NCCO[N+](=O)[O-])C(Cc2ccccc2)S1` (stereo not drawn) the figure was 123 to 124 °C; with `Oc1cc2onc(C3CCCCC3)c2cc1O`, 177 °C; with `COC(=O)Cc1cccc(C(=O)c2ccc(O)cc2)c1`, 111 to 113 °C. `COc1ccc(C2Nc3ccccc3-c3c([N+](=O)[O-])cnn32)cc1` (stereo not drawn) displayed a melting point of 181 to 183 °C. As for `CC(=O)Nc1nc(NCCSC(C)=O)n[nH]1`, the figure is 127 to 130 °C. As for `Cc1c(-c2cnccn2)c(N2CC[C@H](N(C)C)C2)c2oc(C3CC3)nc2c1C#N`, the figure is 157 to 159 °C; as for `O=[N+]([O-])c1cc(C(F)(F)F)cc([N+](=O)[O-])c1P(=O)(c1ccccc1)c1ccccc1`, 214 to 215 °C. With `COc1cc2c(=O)n(C)c(-c3ccc(OC4CCN(C5CCC5)CC4)cc3)nc2cn1` the figure was 146 to 148 °C. Regarding `O=C(c1cc(-c2ccccc2)no1)C1CCCCC1N1CCCC1` (stereo not drawn), the melting point is 109 to 111 °C. As for `COc1ccc(C2CCN(c3c(C)c(C)c4c(c3C)C(N3CCc5ccccc5CC3)C(C)(C)O4)CC2)cc1OC` (stereo not drawn), the figure is 136 to 138 °C. As for `CCCCn1c(=O)c2c(ncn2CCCCC(C)=O)n(CCCC)c1=O`, the figure is 88 °C; as for `COc1c(Cl)ccc(-c2cc(N)c(Cl)c(C(=O)N3CC=CCO3)n2)c1F`, 78 to 81 °C; as for `CCN1C(=O)C(C)(C)C(=O)N(C)c2cc(CN(CCn3ccc4sccc4c3=O)Cc3cccnc3C)ccc21`, 139 to 140 °C. With `O=C1CCCC2=C1C(c1cc(Br)cs1)C1=C(CCS1)N2` (stereo not drawn) the figure was greater than 250 °C.

`CCOC(=O)CC(C#N)(CC(=O)OCC)c1ccccn1` registered a melting point of 86.5 to 88 °C. With `CC(=O)N1CC(=O)NC(Cc2cccc(NC(=O)OC(C)(C)C)c2)C1=O` (stereo not drawn) the figure was 189 to 190 °C; with `O=C(NCCCN1CCN(c2ccc(F)cc2OCC(F)(F)F)CC1)c1conc1-c1ccc(F)cc1`, 122 to 123 °C; with `COc1ccc(COc2cccc3c2CN(C2CCC(=O)NC2=O)C3=O)cc1OC` (stereo not drawn), 205 to 207 °C. As for `CC(C)(C)COc1c(-c2ccc(S(N)(=O)=O)cc2)cnn(-c2ccc(F)c(F)c2)c1=O`, the figure is 173 to 175 °C. As for `O=[N+]([O-])c1ccc(Cn2ccnn2)cc1`, the figure is 112 to 113 °C; as for `CCON=C(c1ccccc1SCc1ccc(Cl)cc1)n1ccnc1`, 96.5 to 97.5 °C.

Regarding `NCC1Cc2cc(C(F)(F)F)cc(-c3ccc(F)c(Cl)c3)c2O1` (stereo not drawn), the melting point was greater than 250 °C.

On to `CC(C)(C)NS(=O)(=O)c1csc2ccccc12`, for which the melting point lay in the range of 146 to 148 °C. As for `COc1ccc2c(c1)C(=O)N(c1ccc3c(c1)n(C)c(=O)n3C)C2`, the figure is 268 to 270 °C; as for `CCOC(=O)C=Cc1ccc(Cl)cc1N(CC(=O)c1ccc(Cl)cc1)S(=O)(=O)c1ccc(C)cc1`, 162 to 165 °C; as for `OCC(O)Cc1cc(Cl)c2ccccc2c1OCc1ccccc1` (stereo not drawn), 69 to 71 °C. With `COc1ccc(CCOc2ccc(NC(=O)c3cc(F)cc(N4CCOCC4)c3)c3ccccc23)cc1OC` the figure was 73 to 75 °C; with `CCOC(=O)C(=CNc1ccccc1CO)C(=O)C(C)C`, 72 to 84 °C; with `COC(=O)CCCCCCC1C(=O)CCN1C(=O)c1ccc(-c2ccccc2)cc1` (stereo not drawn), 90 to 92 °C. With `CCc1nc(=O)[nH]c2cc(OC)c(OC)cc12` the figure was 263 to 265 °C. In the case of `Cc1ccc(C2=NN(C(=O)c3cccnc3)CC2)cc1`, the melting point was 100 to 102 °C. With `O=S(=O)(Cc1cccs1)c1ncc(Br)cn1` the figure was 124 to 126 °C. In the case of `CN1CCN(c2ccc(S(=O)(=O)Oc3ccc(F)cc3)cc2)C1=O`, the melting point lay within 170 to 172 °C.

On to `N#Cc1ccc(CC2CCN(C(=O)C(=O)Nc3ccc4[nH]c(=O)oc4c3)CC2)cc1`, for which the melting point came out at 194 °C. With `O=C1C=CCC2=C3C(=CCN3C13COc1cc4c(cc13)OCO4)CCC2` (stereo not drawn) the figure was 176 to 177 °C; with `CC(C)Oc1ccc(COc2ccc(CC(=O)O)cc2Cl)cc1`, 115 to 116 °C; with `CN(c1nc(-c2cc3ccccc3[nH]c2=O)cs1)S(=O)(=O)c1cccc(F)c1`, 247 to 249 °C.

In turn, `COC(=O)c1ccc(Cl)c2nc(C(C)(C)C)oc12` had a melting point of 130 to 131 °C. As for `Cc1cccc(N2CCN(CCCCc3ccc(C(=O)CCC(=O)O)cc3)CC2)c1`, the figure is 199 to 201 °C; as for `CNC(=O)CN1CCc2cc(Nc3ncc(Cl)c(Nc4c(F)cccc4C(=O)NC)n3)c(OC)cc2CC1`, 119 to 130 °C. As for `CC(C)C[C@H](NC(=O)C(CS)C(F)(F)F)C(=O)O` (stereo partly drawn), the figure is 132 to 134 °C. With `Cc1c(C(=O)O)sc2cncc(Oc3ccc(Cl)cc3)c12` the figure was 315 to 317 °C. As for `COC(=O)c1ccc2oc(Cl)nc2c1`, the melting point was in the range of 104 to 106 °C. In the case of `CO[C@@]1(C)O[C@@H]2[C@H](OCc3ccccc3)OC[C@H](OC(=O)c3ccc([N+](=O)[O-])cc3)[C@H]2O[C@]1(C)OC`, the melting point fell in the range of 58 to 59 °C. Consider `O=C(O)Cc1cc(N=Nc2ccc(S(=O)(=O)Nc3ccccn3)cc2)ccc1O`, for which the melting point worked out at 135 °C.

In turn, `BrCc1ccccc1-c1ccccc1CBr` came in with a melting point of 85 to 88 °C. `COC(=O)Cn1cnc2c(OCc3ccccc3)ncnc21` displayed a melting point of 112 to 115 °C.

Take `COc1nc(NC(=O)NS(=O)(=O)c2ccccc2OCC#N)nn1C`: the melting point lay in the range of 205 to 207 °C. With `CCn1c(N)c(-c2nccn2COCC[Si](C)(C)C)c(=O)c2ccc(Cl)nc21` the figure was 90 °C; with `CCN(CC)C(=O)Nc1ccc(S(=O)(=O)N2C(=O)C(NCCOCCO)(c3ccccc3Cl)c3cc(Cl)ccc32)cc1` (stereo not drawn), 114 to 118 °C. The molecule `Cc1[nH]cnc1Cc1cn(C)c2ccccc2c1=O` registered a melting point of 110 to 113 °C.

For the molecule `CC(C#N)=NC(C#N)=C(N)C#N`, the melting point was in the range of 220 to 221 °C. Regarding `CC1CC(=O)c2c(C(=O)Nc3ccc4c(c3)OC(C)(C)O4)c[nH]c2C1` (stereo not drawn), the melting point was in the range of 297 to 299 °C. As for `CN(C(F)(F)C(F)F)S(=O)(=O)c1ccccc1S(N)(=O)=O`, the figure is 102 to 107 °C; as for `CCCCCCCCCCCCCCCCCC(=O)Nc1cccc(C(=O)N(CC(=O)O)CC(=O)O)c1`, 132 to 142 °C; as for `CC(C)(C)OC(=O)N1CCCN(c2nc3ccccc3[nH]2)CC1`, 225 to 226 °C. With `CCCCCCc1nc2cc3c(cc2[nH]1)NC(=O)C3(C)C` the figure was 233 to 234 °C. As for `CCCCCCCCCN1C(=O)N(c2ccc([N+](=O)[O-])c(C(F)(F)F)c2)C(=O)C1(C)C`, the figure is 63 °C; as for `Cc1ccc(S(=O)(=O)Nc2ccc(C#N)cc2[N+](=O)[O-])cc1`, 150 to 152 °C. `CCC1(c2ccccc2)Cc2cc(O)c(Cl)c(Cl)c2C1=O` (stereo not drawn) returned a melting point of 177 to 179 °C.

`CON=C(C)CC(C)(C)Cn1c(C)nc2c(N)nc3ccccc3c21` returned a melting point of 193 to 195 °C.

In general, melting point refers to the temperature of the solid-liquid transition.
